Laboratory results: patent US20260109707A1, “HETEROBIFUNCTIONAL COMPOUNDS AND METHODS OF TREATING DISEASE” (Halda Therapeutics OpCo. Inc., priority 2022, published 2026)
Read-outs that look alike come from different tables or passages of the source.

Columns and labels:
[1] = tested on: VCaP cells; assay: Cellular growth inhibition assay for VCaP cells (CellTiter-Glo, 72 hours); type: cell-based, human
Method in brief: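 Luminescent viability signal after 72 h of compound exposure gave GI50 values by four-parameter nonlinear regression. Compounds were added in 0.5% DMSO to cells plated 24 h earlier at 5000/well in DMEM containing 10% FBS.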

[2] = tested on: T47D cells; assay: Cellular growth inhibition assay for T47D cells (CellTiter-Glo, 72 hours); type: cell-based, human; conditions: 72 hours treatment
Method in brief: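 Cells are plated at 3000/well and allowed 24 h before treatment. Test compound in medium containing 0.5% DMSO is then added, with DMSO-only wells as negative control, and plates are incubated 72 h at 37 °C. ATP luminescence (CellTiter-Glo 2.0) is then fitted to four parameters to derive GI50.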

[3] = tested on: T-Rex 293 cell line SC3 cells lacking increased expression of androgen receptor protein; assay: Cellular growth inhibition assay, T-Rex 293 SC3 cells without doxycycline (CellTiter-Glo, 72 hours); type: cell-based; conditions: T-Rex 293 cell line SC3 cells not exposed to doxycycline (lacking increased androgen receptor expression)
Method in brief: (§1)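 Doxycycline (10 ng/mL) was either included or omitted to toggle wild-type androgen receptor expression in SC3 cells, a T-Rex 293 clone, grown in stripped-serum, phenol red-free medium. After 72 hours with compound, viable cells were quantified by CellTiter-Glo 2.0.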

[4] = tested on: T-Rex 293 cell line SC3 cells having increased expression of androgen receptor protein due to exposure to doxycycline; assay: Cellular growth inhibition assay, T-Rex 293 SC3 cells with doxycycline (CellTiter-Glo, 72 hours); type: cell-based; conditions: 72 h, T-Rex 293 SC3 cells with increased androgen receptor expression due to doxycycline (10 ng/mL)
Method in brief: as §1

SMILES	GI50 ([1]; Homo sapiens, VCaP, 72 h) [nM]	GI50 ([2]; Homo sapiens, T47D, 72 h) [nM]	GI50 ([3]; 72 h) [nM]	GI50 [4] [nM]	GI50 [1] [nM]	GI50 [2] [nM]	GI50 [3] [nM]
Cc1sc2c(c1C)C(c1ccc(O[C@H]3CC[C@@]4(CCCN(c5ccc(C(=O)N[C@H]6CC[C@H](Oc7ccc(C#N)c(Cl)c7)CC6)nn5)C4)C3)cc1)=N[C@@H](Cc1ncco1)c1nnc(C)n1-2 [I-96]	< 500	< 500	< 500	< 500	–	–	–
Cc1sc2c(c1C)C(c1ccc(O[C@H]3CC[C@]4(CCCN(c5ccc(C(=O)N[C@H]6CC[C@H](Oc7ccc(C#N)c(Cl)c7)CC6)nn5)C4)C3)cc1)=N[C@@H](Cc1ncco1)c1nnc(C)n1-2 [I-97]	< 500	< 500	< 500	< 500	–	–	–
Cc1sc2c(c1C)C(c1ccc(O[C@@H]3CC[C@]4(CCCN(c5ccc(C(=O)N[C@H]6CC[C@H](Oc7ccc(C#N)c(Cl)c7)CC6)nn5)C4)C3)cc1)=N[C@@H](Cc1ncco1)c1nnc(C)n1-2 [I-98]	< 500	< 500	< 500	< 500	–	–	–
Cc1sc2c(c1C)C(c1ccc(OC3CN(C4CCN(c5ccc(C(=O)N[C@H]6CC[C@H](Oc7ccc(C#N)c(Cl)c7)CC6)nn5)C4)C3)cc1)=N[C@@H](Cc1ncco1)c1nnc(C)n1-2 (stereo partly shown) [I-101]	< 500	< 500	< 500	< 500	–	–	–
Cc1sc2c(c1C)C(c1ccc(OC[C@H]3CC[C@@]4(CCCN(c5ccc(C(=O)N[C@H]6CC[C@H](Oc7ccc(C#N)c(Cl)c7)CC6)nn5)C4)C3)cc1)=N[C@@H](Cc1ncco1)c1nnc(C)n1-2 [I-102]	< 500	< 500	< 500	< 500	–	–	–
Cc1sc2c(c1C)C(c1ccc(OC[C@@H]3CC[C@@]4(CCCN(c5ccc(C(=O)N[C@H]6CC[C@H](Oc7ccc(C#N)c(Cl)c7)CC6)nn5)C4)C3)cc1)=N[C@@H](Cc1ncco1)c1nnc(C)n1-2 [I-103]	< 500	< 500	< 500	< 500	–	–	–
Cc1sc2c(c1C)C(c1ccc(OC[C@H]3C[C@]4(CCCN(c5ccc(C(=O)N[C@H]6CC[C@H](Oc7ccc(C#N)c(Cl)c7)CC6)nn5)C4)C3)cc1)=N[C@@H](Cc1ncco1)c1nnc(C)n1-2 [I-104]	–	–	–	< 500	< 500	< 500	< 500
Cc1sc2c(c1C)C(c1ccc(OC[C@H]3C[C@@]4(CCCN(c5ccc(C(=O)N[C@H]6CC[C@H](Oc7ccc(C#N)c(Cl)c7)CC6)nn5)C4)C3)cc1)=N[C@@H](Cc1ncco1)c1nnc(C)n1-2 [I-105]	< 500	< 500	< 500	< 500	–	–	–
CNc1ccc2c(n1)C(c1ccc(OC3CC4(CCN(c5ccc(C(=O)N[C@H]6CC[C@H](Oc7ccc(C#N)c(Cl)c7)CC6)nn5)CC4)C3)cc1)=NCc1onc(C)c1-2 [I-106]	< 500	> 3000	> 3000	< 500	–	–	–
CNc1ccc2c(n1)C(c1ccc(OC3CC4(CCCN(c5ccc(C(=O)N[C@H]6CC[C@H](Oc7ccc(C#N)c(Cl)c7)CC6)nn5)C4)C3)cc1)=NCc1onc(C)c1-2 (stereo partly shown) [I-107]	> 3000	> 3000	> 3000	< 500	–	–	–
Cc1sc2c(c1C)C(c1ccc(OC3CC4(CCN(c5ccc(C(=O)N[C@H]6CC[C@H](Oc7ccc(C#N)c(Cl)c7)CC6)cc5)CC4)C3)cc1)=N[C@@H](Cc1ncco1)c1nnc(C)n1-2 [I-108]	< 500	< 500	< 500	< 500	–	–	–
Cc1sc2c(c1C)C(c1ccc(CCOC3CCN(c4ccc(C(=O)N[C@H]5CC[C@H](Oc6ccc(C#N)c(Cl)c6)CC5)nn4)CC3)cc1)=NC(Cc1ncco1)c1nnc(C)n1-2 (stereo partly shown) [I-110]	< 500	< 500	> 3000	< 500	–	–	–
Cc1sc2c(c1C)C(c1ccc(CC3CC4(CCN(c5ccc(C(=O)N[C@H]6CC[C@H](Oc7ccc(C#N)c(Cl)c7)CC6)nn5)CC4)C3)cc1)=N[C@H](Cc1ncco1)c1nnc(C)n1-2 [I-111]	< 500	> 3000	> 3000	< 500	–	–	–
Cc1sc2c(c1C)C(c1ccc(CC3CC4(CCN(c5ccc(C(=O)N[C@H]6CC[C@H](Oc7ccc(C#N)c(Cl)c7)CC6)nn5)CC4)C3)cc1)=N[C@@H](Cc1ncco1)c1nnc(C)n1-2 [I-112]	< 500	< 500	< 500	< 500	–	–	–
Cc1sc2c(c1C)C(c1ccc(CC3CN(CC4CCN(c5ccc(C(=O)N[C@H]6CC[C@H](Oc7ccc(C#N)c(Cl)c7)CC6)nn5)CC4)C3)cc1)=N[C@@H](Cc1ncco1)c1nnc(C)n1-2 [I-113]	< 500	< 500	500 to 1500	< 500	–	–	–
Cc1sc2c(c1C)C(c1ccc(CC3CN(CC4CCN(c5ccc(C(=O)N[C@H]6CC[C@H](Oc7ccc(C#N)c(Cl)c7)CC6)nn5)CC4)C3)cc1)=N[C@H](Cc1ncco1)c1nnc(C)n1-2 [I-114]	500 to 1500	500 to 1500	1500 to 3000	< 500	–	–	–
Cc1sc2c(c1C)C(c1ccc(CC3CN([C@@H]4CCN(c5ccc(C(=O)N[C@H]6CC[C@H](Oc7ccc(C#N)c(Cl)c7)CC6)nn5)C4)C3)cc1)=N[C@@H](Cc1ncco1)c1nnc(C)n1-2 [I-115]	< 500	< 500	< 500	< 500	–	–	–
Cc1sc2c(c1C)C(c1ccc(CC3CN([C@H]4CCN(c5ccc(C(=O)N[C@H]6CC[C@H](Oc7ccc(C#N)c(Cl)c7)CC6)nn5)C4)C3)cc1)=N[C@@H](Cc1ncco1)c1nnc(C)n1-2 [I-116]	< 500	< 500	< 500	< 500	–	–	–
Cc1sc2c(c1C)C(c1ccc(C[C@H]3C[C@@]4(CCCN(c5ccc(C(=O)N[C@H]6CC[C@H](Oc7ccc(C#N)c(Cl)c7)CC6)nn5)C4)C3)cc1)=N[C@@H](Cc1ncco1)c1nnc(C)n1-2 [I-118]	1500 to 3000	1500 to 3000	> 3000	> 3000	–	–	–
Cc1sc2c(c1C)C(c1ccc(C[C@H]3C[C@]4(CCCN(c5ccc(C(=O)N[C@H]6CC[C@H](Oc7ccc(C#N)c(Cl)c7)CC6)nn5)C4)C3)cc1)=N[C@@H](Cc1ncco1)c1nnc(C)n1-2 [I-119]	< 500	< 500	< 500	< 500	–	–	–
Cc1sc2c(c1C)C(c1ccc(C[C@H]3C[C@@H](C4CCCN(c5ccc(C(=O)N[C@H]6CC[C@H](Oc7ccc(C#N)c(Cl)c7)CC6)nn5)C4)C3)cc1)=N[C@@H](Cc1ncco1)c1nnc(C)n1-2 (stereo partly shown) [I-120]	> 3000	< 500	> 3000	< 500	–	–	–
Cc1sc2c(c1C)C(c1ccc(C[C@H]3C[C@H](C4CCCN(c5ccc(C(=O)N[C@H]6CC[C@H](Oc7ccc(C#N)c(Cl)c7)CC6)nn5)C4)C3)cc1)=N[C@@H](Cc1ncco1)c1nnc(C)n1-2 (stereo partly shown) [I-121]	> 3000	1500 to 3000	> 3000	1500 to 3000	–	–	–
Cc1sc2c(c1C)C(c1ccc(CC3CC(C4CCCN(c5ccc(C(=O)N[C@H]6CC[C@H](Oc7ccc(C#N)c(Cl)c7)CC6)nn5)C4)C3)cc1)=N[C@@H](Cc1ncco1)c1nnc(C)n1-2 (stereo partly shown) [I-122]	< 500	< 500	< 500	< 500	–	–	–
Cc1sc2c(c1C)C(c1ccc(C[C@H]3CC[C@@]4(CCCN(c5ccc(C(=O)N[C@H]6CC[C@H](Oc7ccc(C#N)c(Cl)c7)CC6)nn5)C4)C3)cc1)=N[C@@H](Cc1ncco1)c1nnc(C)n1-2 [I-123]	1500 to 3000	1500 to 3000	> 3000	1500 to 3000	–	–	–
Cc1sc2c(c1C)C(c1ccc(C[C@H]3CC[C@]4(CCCN(c5ccc(C(=O)N[C@H]6CC[C@H](Oc7ccc(C#N)c(Cl)c7)CC6)nn5)C4)C3)cc1)=N[C@@H](Cc1ncco1)c1nnc(C)n1-2 [I-124]	< 500	< 500	< 500	< 500	–	–	–
